# Laboratory results published in US20240208965A1, “HETEROARYL ALKYLENE SUBSTITUTED 2-OXOQUINAZOLINE DERIVATIVES AS METHIONINE ADENOSYLTRANSFERASE 2A INHIBITORS” (IDEAYA BIOSCIENCES, INC., priority 2020, published 2024).
# pIC50: −log10 of the molar value.
# Biological target: T1, Human MAT2A (Homo sapiens, UniProt P31153)
# T1 construct: Human MAT2A: Cepter, amino acids 1-395 Clone ID 334, lot 00023-148; purchased Cepter clone ID 334, lot 00023-148
# Assay: Phosphate Sensor Fluorescence Assay (Biologic Example A)
# Format: biochemical
# Settings: MAT2A inhibition, Biological Example A procedure (Compounds 1.001-1.028); 500 uM L-methionine, 500 uM ATP
# Experimental: (§1) The ability of the compound of present disclosure to inhibit MAT2A enzyme was determined using a Phosphate Sensor Fluorescence Assay described below.
# Biologic Example A. Phosphate Sensor Fluorescence Assay
# (§2) MAT2A enzyme is incubated with a test compound in DMSO or DMSO and its substrates (L-methionine and ATP) in a microtiter plate. The enzymatic reaction is stopped by the addition of Working Phosphate Sensor Mixture. The plate is analyzed for fluorescence at 450 nm. The high control (DMSO with enzyme and its substrates) gives high fluorescence which represents no inhibition of enzymatic activity while the low control (DMSO with MAT2A substrates and no enzyme) gives low fluorescence which represents full inhibition of enzymatic activity.
# (§3) • Human MAT2A: Cepter, amino acids 1-395 • Tris, pH 7.5: Invitrogen cat #15567-027 • KCl: Ambion cat #AM9640G • MgCl2: Ambion cat #AM9530G • Brij-35: Sigma cat B4184-10ML • DTT: Goldbio cat #DTT100 • BGG: Sigma cat #G5009-25G • PNP: Novus Biologicals cat #NBP1-50872 • 7-MEG: Cayman Chemical cat #15988 • L-Methionine: Alfa Aesar cat #J61904 • ATP: Alfa Aesar cat #J60336 • Phosphate Sensor: Thermo Fisher cat #PV4407 • EDTA: Life Tech cat #15575-038 • Assay plate: 384-well black polypropylene plate: Thomas Scientific cat #1149Q35
# • Assay Buffer: 50 mM Tris, pH 7.5/50 mM KCl/10 mM MgCl2/0.01% Brij-35/1 mM DTT/0.1% BGG/40 nM PNP/6 uM 7-MEG • MAT2A: 10 nM for Cepter clone ID 329, lot 00023-123 before the addition of Working Phosphate Sensor Mixture • 5 nM for Cepter clone ID 334, lot 00023-148 before the addition of Working Phosphate Sensor Mixture • L-methionine: 500 uM before the addition of Working Phosphate Sensor Mixture • ATP: 500 uM before the addition of Working Phosphate Sensor Mixture
# (§4) For the assay, a mixture of 1 mM L-methionine/1 mM ATP (2× final pre-stopped concentration) in assay buffer; MAT2A (2× final pre-stopped concentration) in Assay Buffer and Working Phosphate Sensor Mixture (1.5 uM Phosphate Sensor/30 mM EDTA in Assay Buffer, which is 3× final concentrations) were prepared. Test compounds or DMSO were added to the appropriate well suing D300e digital dispenser. 5 μl/well of Assay Buffer was added to the wells corresponding to the negative control and 5 μl/well of MAT2A was added to all the wells except for those corresponding to the negative control. After incubating the plate at room temperature for 15 minutes, 5 μl/well of the 1 mM L-methionine/1 mM ATP mixture was added to all wells. The plate was centrifuged at 1000 rpm for 1 minute and then incubated at room temperature for 1 hour. 5 μl of the Working Phosphate Sensor Mixture was added to all wells and the plate was centrifuged at 1000 rpm for 1 minute. The plate was read for fluorescence at 450 nm after exciting at 430 nm.
# (§5) Percent inhibition was calculated in Chemical and Biological Information System (CBIS), (ChemInnovation Software Inc.). Curves were fitted by CBIS as % inhibition vs. log [compound concentration] using a 4-parameter inhibition model.
# (§6) Fit=(A+((B−A)/(1+((C/x)^D))))
# (§7) Compounds 1.001-1.028 were tested using the procedure described in Bioogical Example A, described above. Compounds 1.029-1.070 were tested using the procedure described in Biological Example B, described above.
# T1 sequence (P31153 whole entry, the tested form may be a part): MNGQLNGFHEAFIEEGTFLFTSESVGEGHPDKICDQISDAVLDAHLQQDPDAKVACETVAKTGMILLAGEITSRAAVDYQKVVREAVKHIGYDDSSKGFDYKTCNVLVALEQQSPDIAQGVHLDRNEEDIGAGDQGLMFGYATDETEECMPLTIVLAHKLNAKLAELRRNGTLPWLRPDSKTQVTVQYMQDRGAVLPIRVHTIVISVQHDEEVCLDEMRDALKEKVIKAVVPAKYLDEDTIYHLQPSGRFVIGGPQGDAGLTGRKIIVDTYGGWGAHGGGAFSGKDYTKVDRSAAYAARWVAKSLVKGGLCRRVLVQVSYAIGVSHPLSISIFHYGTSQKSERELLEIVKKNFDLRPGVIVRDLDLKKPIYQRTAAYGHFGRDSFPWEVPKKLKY
row,Structure (SMILES),pIC50
1,"CC(c1c[nH]cn1)n1c(=O)nc(N2CC[C@H](O)C2)c2ccc(C(F)(F)F)cc21 (mixture of isomers) [1.019, 1-(1-(1H-imidazol-4-yl)ethyl)-4-((S)-3-hydroxypyrrolidin-1-yl)-7-(trifluoromethyl)quinazolin-2(1H)-one]",6.30 to 6.70
2,"CNc1nc(=O)n(Cc2c[nH]cn2)c2cc(Cl)ccc12 [1.001, 1-((1H-imidazol-4-yl)methyl)-7-chloro-4-(methylamino)quinazolin-2(1H)-one]",6.70 to 8.00
3,"CNc1nc(=O)n([C@H](C)c2c[nH]cn2)c2cc(C(F)(F)F)ccc12 (single isomer, unassigned) [1.008]",6.70 to 8.00
4,"C[C@H](c1c[nH]cn1)n1c(=O)nc(N(C)C)c2ccc(C(F)(F)F)cc21 (single isomer, unassigned) [1.016]",6.70 to 8.00
5,"CNc1nc(=O)n([C@@H](C)c2c[nH]cn2)c2cc(C(F)(F)F)ccc12 (single isomer, unassigned) [1.009]",6.70 to 8.00
6,"CC(c1c[nH]cn1)n1c(=O)nc(N(C)C)c2ccc(C(F)(F)F)cc21 (stereo not drawn) [1.015, 1-(1-(1H-imidazol-4-yl)ethyl)-4-(dimethylamino)-7-(trifluoromethyl)quinazolin-2(1H)-one]",6.70 to 8.00
7,"C[C@H](c1c[nH]cn1)n1c(=O)nc(N2CCC2)c2ccc(C(F)(F)F)cc21 (single isomer, unassigned) [1.027]",6.30 to 6.70
8,"CO[C@H]1CCN(c2nc(=O)n([C@H](C)c3c[nH]cn3)c3cc(C(F)(F)F)ccc23)C1 (single isomer, unassigned) [1.021]",6.30 to 6.70
9,"C[C@H](c1c[nH]cn1)n1c(=O)nc(N2CC[C@@H](O)C2)c2ccc(C(F)(F)F)cc21 (single isomer, unassigned) [1.013]",6.70 to 8.00
10,"CNc1nc(=O)n(Cc2c[nH]cn2)c2cc(C3CC3)ccc12 [1.004, 1-((1H-Imidazol-4-yl)methyl)-7-cyclopropyl-4-(methylamino)quinazolin-2(1H)-one]",6.70 to 8.00
11,"CC(c1c[nH]cn1)n1c(=O)nc(N)c2ccc(C(F)(F)F)cc21 (stereo not drawn) [1.018, 1-(1-(1H-imidazol-4-yl)ethyl)-4-amino-7-(trifluoromethyl)quinazolin-2(1H)-one]",6.70 to 8.00
12,"CO[C@H]1CCN(c2nc(=O)n([C@@H](C)c3c[nH]cn3)c3cc(C(F)(F)F)ccc23)C1 (single isomer, unassigned) [1.022]",5.00 to 6.00
13,"CNc1nc(=O)n([C@H](C)c2cscn2)c2cc(C(F)(F)F)ccc12 [1.002, (R)-4-(methylamino)-1-(1-(thiazol-4-yl)ethyl)-7-(trifluoromethyl)quinazolin-2(1H)-one]",6.00 to 6.30
14,"CNc1nc(=O)n(Cc2c[nH]nn2)c2cc(C3CC3)ccc12 [1.006, 1-((1H-1,2,3-triazol-4-yl)methyl)-7-cyclopropyl-4-(methylamino)quinazolin-2(1H)-one]",5.00 to 6.00

# Second part, the compound after the results:
row,pIC50,Structure (SMILES)
1,6.70 to 8.00,"C[C@H](c1c[nH]cn1)n1c(=O)nc(N2CCCC2)c2ccc(C(F)(F)F)cc21 (single isomer, unassigned) [1.023]"
2,6.70 to 8.00,"C[C@@H](c1c[nH]cn1)n1c(=O)nc(N2CCCC2)c2ccc(C(F)(F)F)cc21 (single isomer, unassigned) [1.024]"
3,6.70 to 8.00,"C[C@@H](c1c[nH]cn1)n1c(=O)nc(N2CC[C@@H](O)C2)c2ccc(C(F)(F)F)cc21 (single isomer, unassigned) [1.014]"
4,5.00 to 6.00,"CNc1nc(=O)n(Cc2c[nH]nn2)c2cc(C(F)(F)F)ccc12 [1.005, 1-((1H-1,2,3-triazol-4-yl)methyl)-4-(methylamino)-7-(trifluoromethyl)quinazolin-2(1H)-one]"
5,5.00 to 6.00,"CNc1nc(=O)n(Cc2c[nH]c(C(F)(F)F)n2)c2cc(C(F)(F)F)ccc12 [1.010, 4-(methylamino)-7-(trifluoromethyl)-1-((2-(trifluoromethyl)-1H-imidazol-4-yl)methyl)quinazolin-2(1H)-one]"
6,6.70 to 8.00,"C[C@@H](c1c[nH]cn1)n1c(=O)nc(N2CCC2)c2ccc(C(F)(F)F)cc21 (single isomer, unassigned) [1.028]"
7,6.70 to 8.00,"C[C@@H](c1c[nH]cn1)n1c(=O)nc(N(C)C)c2ccc(C(F)(F)F)cc21 (single isomer, unassigned) [1.017]"
8,6.70 to 8.00,"CC(c1c[nH]cn1)n1c(=O)nc(N2CC[C@@H](O)C2)c2ccc(C(F)(F)F)cc21 (mixture of isomers) [1.012, 1-(1-(1H-imidazol-4-yl)ethyl)-4-((R)-3-hydroxypyrrolidin-1-yl)-7-(trifluoromethyl)quinazolin-2(1H)-one]"
9,6.30 to 6.70,"CO[C@@H]1CCN(c2nc(=O)n([C@@H](C)c3c[nH]cn3)c3cc(C(F)(F)F)ccc23)C1 (single isomer, unassigned) [1.026]"
10,6.30 to 6.70,"CC(c1c[nH]cn1)n1c(=O)nc(N2CC[C@@H](CO)C2)c2ccc(C(F)(F)F)cc21 (mixture of isomers) [1.020, 1-(1-(1H-imidazol-4-yl)ethyl)-4-((R)-3-(hydroxymethyl)pyrrolidin-1-yl)-7-(trifluoromethyl)quinazolin-2(1H)-one]"

# Biological target: T1, Human MAT2A
# Assay: Phosphate Sensor Fluorescence Assay (Biologic Example B)
# Format: biochemical
# Settings: MAT2A inhibition, Biological Example B procedure (Compounds 1.029-1.070); 5.8 nM MAT2A, 500 uM L-methionine, 500 uM ATP
# Experimental: as §1
# Biologic Example B. Phosphate Sensor Fluorescence Assay
# as §2
# as §3, with “1-395 Clone ID 334, lot 00023-148” for “1-395”, “JTBaker P/N 2085-05” for “Alfa Aesar cat #J61904”, “Promega P/N V915B” for “Alfa Aesar cat #J60336”, “Invitrogen” for “Thermo Fisher”, “Corning P/N 3573” for “Thomas Scientific cat #1149Q35”
# • Assay Buffer: 50 mM Tris, pH 7.5/50 mM KCl/10 mM MgCl2/0.01% Brij-35/1 mM DTT/0.01% BGG/40 nM PNP/6 uM 7-MEG • MAT2A: 5.8 nM MAT2A (1-395), Cepter, clone ID 334, lot 00023-148 before the addition of Working Phosphate Sensor Mixture • L-methionine: 500 uM before the addition of Working Phosphate Sensor Mixture • ATP: 500 uM before the addition of Working Phosphate Sensor Mixture
# as §4, with “using a Beckman Coulter Echo 550 acoustic liquid handler. 10 μL/well” for “suing D300e digital dispenser. 5 μl/well”, “10 μL/well” for “5 μl/well”, “10 μL” for “5 μl”, “nm on a Tecan Spark microplate reader.” for “nm.”
# as §5, §6, §7
row,pIC50,Structure (SMILES)
1,6.70 to 8.00,"CC(c1c[nH]cn1)n1c(=O)nc(N(C)C)c2ccc(Br)cc21 (stereo not drawn) [1.031, 1-(1-(1H-imidazol-4-yl)ethyl)-7-bromo-4-(dimethylamino)quinazolin-2(1H)-one]"
2,6.00 to 6.30,"CNc1nc(=O)n(Cc2cncs2)c2cc(C(F)(F)F)ccc12 [1.068, 4-(Methylamino)-1-(thiazol-5-ylmethyl)-7-(trifluoromethyl)quinazolin-2(1H)-one]"

# Same assay, conditions: MAT2A inhibition, Biological Example B procedure; printed as a numeric bound, not a class symbol
row,pIC50,Structure (SMILES)
1,< 5.00,"Cc1ncc(Cn2c(=O)nc(N(C)C)c3ccc(C(F)(F)F)cc32)[nH]1 [1.049, 4-(Dimethylamino)-1-((2-methyl-1H-imidazol-5-yl)methyl)-7-(trifluoromethyl)quinazolin-2(1H)-one]"
